{"source": "patent US20040175352A1", "about": "“Microbicidal compositions including an ionene polymer and 2,4,4-trichloro-2-hydroxydiphenyl ether, and methods of using the same” (priority 2003, published 2004)", "type_in_all_cases": "cell-based", "key": {"Trichoderma viride": {"tested_on": "Trichoderma viride", "assay": "Fungal evaluation, Trichoderma viride growth prevention (end point, Kull synergism)", "conditions": "lowest concentration completely preventing growth for seven days, mineral salts-glucose medium pH 6, 25° C.", "description": "Mineral salts-glucose medium was used. To prepare the medium, the following ingredients were added to 1 liter of deionized water: 0.7 g of KH2PO4; 0.7 g of MgSO4.7H2O; 1.0 g of HN4NO3; 0.005 g of NaCl; 0.002 g of FeSO4.7H20; 0.002 g ZnSO4.7H2O; 0.001 g of MnSO4.7H2O; 10 g of Glucose. The pH of the medium was adjusted to 6 with 1N NaOH. The medium was distributed in 5 ml amounts in test tubes and autoclaved at 121° C. for 20 minutes. The fungus, Trichoderma viride or Aspergillus niger, was grown on potato dextrose agar slant for 5 to 10 days and a spore suspension prepared by washing down the spores from the slant into a sterile saline solution. After addition of the biocides in the desired concentrations in the sterile mineral salts-glucose medium, the fungal spore suspension was added. The final spore concentration was approximately 10^6 cfu/ml. The inoculated media was incubated at 25° C. for 7 days.\n(Busan® 77), poly[hydroxyethylene-(dimethyliminio)-2-hydroxypropylene(dimethyliminio)methylene dichloride] […]"}, "Chlorella sp.": {"tested_on": "Chlorella sp.", "assay": "Algal evaluation, Chlorella sp. growth prevention (end point, Kull synergism)", "conditions": "lowest concentration completely preventing growth for three or four weeks, modified Allen's medium pH 7.8, 25° C., 180 ft-candle", "description": "The medium used for testing the effectiveness of the invention against algae was modified Allen's medium (see Allen, A. A., Simple conditions for growth of unicellular blue-green algae on plates, JOURNAL OF PHYCOLOGY. 4:1-4 […]). To make modified Allen's medium, the following six individual stock solutions in g/200 ml of deionized water were first prepared: 1.50 g of K2HPO4; 1.50 g of MgSO4.7H20; 0.80 g Na2CO3; 0.5 g CaCl2.2H2O; 1.16 g Na2SiO3.9H2O; 1.20 g citric acid. A micronutrient stock solution was also prepared by adding the following ingredients to 1 liter of deionized water: 0.75 g of Na2EDTA; 0.097 g FeCl3.6H2O; 0.041 g of MnCl2.4H2O; 0.005 g ZnCl2; 0.002 g CoCl2.6H2O; 0.004 g Na2MoO4.2H2O. To make the final modified Allen's medium, the following ingredients and the stock solutions, prepared from above, were combined in a flask and then made up to 1 liter with deionized water: 1.5 g NaNO3; 5 ml K2HPO4; 5 ml MgSO4.7H2O; 5 ml Na2CO3; 10 ml CaCl2.2H2O; 10 ml Na2SiO3.9H2O; 1 ml citric acid; and 1 ml micronutrient stock solution. The pH was adjusted to 7.8. Then the medium was dispensed in 5 ml amounts in test tubes and autoclaved at 121° C. for 20 minutes. After autoclaving, the biocides were added to the medium in the desired concentrations. […]"}, "Pseudomonas aeruginosa": {"tested_on": "Pseudomonas aeruginosa", "assay": "Bacterial evaluation, Pseudomonas aeruginosa growth prevention (end point, Kull synergism)", "description": "(§1) Nutrient broth (2.5 g/liter of deionized water) was prepared. This was distributed in 5 ml amounts in test tubes and autoclaved at 121° C. for 20 minutes. After addition of the biocides in the desired concentrations to the nutrient broth, 100 microliters of a 24-hour grown suspension of Pseudomonas aeruginosa or Klebsiella pneumoniae cells of approximately 9.3×10^8 cfu/ml were added and incubated at 30° C. for 24 or 48 hours.\n(§2) (Busan® 77), poly[hydroxyethylene-(dimethyliminio)-2-hydroxypropylene(dimethyliminio)methylene dichloride] (Busan® 1055 or APCA), or a cross-linked terpolymer of dimethylamine, epichlorohydrin and ethylenediamine (Busan® 1157), (designated component A), and triclosan (designated component B) in a series of tests in varying ratios and a range of concentrations against the fungi Trichoderma viride, and Aspergillus niger, the bacteria Pseudomonas aeruginosa and Klebsiella pneumoniae, and the alga Chlorella sp. using the methods described above.\n(§3) End points for the various mixtures were then compared with the end points for the pure active ingredients alone in concomitantly prepared flasks or test tubes.\n(§4) Qa=Concentration of compound A in parts per million, acting alone, which produced an end point.\n(§5) Qb=Concentration of compound B in parts per million, acting alone, which produced an end point. […]"}, "Klebsiella pneumoniae": {"tested_on": "Klebsiella pneumoniae", "assay": "Bacterial evaluation, Klebsiella pneumoniae growth prevention (end point, Kull synergism)", "conditions": "lowest concentration completely preventing growth for 24 or 48 hours, nutrient broth, 30° C.", "description": "as §1, §2, §3, §4, §5"}}, "note": "Several values for one entry are separate records, joined by “and”; a condition that tells them apart may be missing. Identical values can stand only once.", "data": [{"compound": "Oc1cc(Cl)ccc1Oc1ccc(Cl)cc1Cl", "note": "[Triclosan, 2,4,4′-tricloro-2′-hydroxydiphenyl ether]", "values": [{"measurement": "Ob, quantity producing end point: concentration of component B (triclosan) acting alone", "setting": "Trichoderma viride", "result": 25, "unit": "ppm"}, {"measurement": "Ob, quantity producing end point: concentration of component B (triclosan) acting alone", "setting": "Chlorella sp.", "result": "0.5 ppm and 0.6 ppm"}, {"measurement": "Ob, quantity producing end point: concentration of component B (triclosan) acting alone", "setting": "Pseudomonas aeruginosa; Pseudomonas aeruginosa, lowest concentration completely preventing growth for 24 or 48 hours, nutrient broth, 30° C.", "result": ">500", "unit": "ppm"}, {"measurement": "effectiveness against Pseudomonas sp. when used individually", "setting": "Pseudomonas aeruginosa; Pseudomonas sp., component used individually", "result": "ineffective"}, {"measurement": "Ob, quantity producing end point: concentration of component B (triclosan) acting alone", "setting": "Klebsiella pneumoniae", "result": 0.5, "unit": "ppm"}]}]}
